pKd: −log10 of the molar value. Entries after “also recorded” stand apart in the source; their conditions may differ.
Key:
[1] = target: T1, HSP72 (Homo sapiens, UniProt P0DMV8); experiment: FP assay binding window and Z' determination
T1 construct: made in house
Excerpt: As a result, the assay was not statistically robust, so could not be used in competition experiments (Z′ = 0.36).[11],[20],[21] We hypothesised that the high lipophilicity of 10 (clog P = 6.9) was causing the small binding window, either due to aggregation, even at very low concentrations, or its large hydrate volume.[22] Because the lipophilicity of the specific-ligand portion of the probe was fixed by the need for high affinity to the HSP70 target, we focused on changes to the solvent exposed fluorophore. ATTO-488, a green-shifted fluorophore that contains two sulfonic acid groups, was selected as an alternative to fluorescein (see ESI ^†), as this reduced the clog P of the bisaryl probe 11 to –3.9.[21] The binding window of ATTO-488 bisaryl FP-probe 11 measured at a fixed and apparently saturating concentration of HSP72 (5 μM), was now greater than 150 mP (Z′ = 0.63, Fig. 3A and Fig. S1, ESI ^†). […]
TRIS Tris(hydroxymethyl)aminomethane
General Information: Unless otherwise stated the aqueous assay buffer contained 50 mM TRIS base pH 7.4, 150 mM NaCl, 6 mM MgCl2, 1 mM DTT, 0.1% (wt/wt) CHAPS. The assay was conducted using 384 Plus F ProxiPlates (PerkinElmer) with a final assay volume of 10 μL. Plates were centrifuged at 1000 rpm for 1 minute prior to incubation and read using an 2103 Envision Multilable Plate Reader. Excitation and emission wavelengths used for green probes were 480 nm and 535 nm, respectively.
Fluorescence polarisation was measured in units of millipolarization (mP). All experiments were performed in triplicate, unless otherwise stated. Data were plotted and analysed using GraphPad Prism 6, graphical data represents the mean ± standard error of the mean for a single representative experiment. ATP-derived fluorescent probes (1.0 mM in aqueous) were purchased from Jena Bioscience. Human BAG-1M (10.9 μM in 20 mM TRIS base pH 7.4, 100 mM NaCl, 1 mM DTT, 1% (v/v) glycerol) was purchased from Enzo Life Sciences.
Determination of optimal probe concentration: To each well, 5 μL of HSP72 (10 µM in assay buffer) or 5 μL assay buffer and increasing concentrations of probe (5 μL, two-fold dilution series) were added. Fluorescence polarisation values for the tracer ± protein were plotted using GraphPad prism 6. […]
Z’ determination: To each well, 5 µL of probe (20 nM in assay buffer) and either 5 µL of HSP70 (in assay buffer) or 5 µL of assay buffer were added. Fluorescent polarisation values from 96 wells were used to calculate the mean and standard deviation for each data set. Z’-factors were calculated using the equation given below (sample refers to probe in the absence of protein and control refers to probe in the presence of protein). […]

[2] = target: T2, HSP72/BAG1 complex (Homo sapiens, UniProt P0DMV8); experiment: FP probe KD determination with BAG1; assay type: binding
T2 construct: purchased Enzo Life Sciences (BAG-1M only)
T2 sequence (P0DMV8 whole entry): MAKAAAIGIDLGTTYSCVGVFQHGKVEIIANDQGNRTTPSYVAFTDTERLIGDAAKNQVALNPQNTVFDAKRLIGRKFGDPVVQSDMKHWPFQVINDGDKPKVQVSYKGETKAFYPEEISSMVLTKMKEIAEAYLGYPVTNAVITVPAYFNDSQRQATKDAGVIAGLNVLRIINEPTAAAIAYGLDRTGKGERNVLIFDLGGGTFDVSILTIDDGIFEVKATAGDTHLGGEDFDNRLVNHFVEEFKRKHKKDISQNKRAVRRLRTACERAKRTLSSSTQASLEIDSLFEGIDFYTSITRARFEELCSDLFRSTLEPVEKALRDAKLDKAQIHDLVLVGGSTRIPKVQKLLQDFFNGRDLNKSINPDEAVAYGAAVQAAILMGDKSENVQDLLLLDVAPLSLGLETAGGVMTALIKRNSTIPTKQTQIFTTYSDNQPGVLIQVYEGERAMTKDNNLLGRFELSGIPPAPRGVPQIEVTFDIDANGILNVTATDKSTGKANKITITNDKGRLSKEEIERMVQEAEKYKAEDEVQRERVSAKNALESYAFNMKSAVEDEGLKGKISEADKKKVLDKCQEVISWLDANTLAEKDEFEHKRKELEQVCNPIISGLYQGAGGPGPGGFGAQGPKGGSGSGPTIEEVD
T2 sequence (Q99933 72-345 partner limits assumed): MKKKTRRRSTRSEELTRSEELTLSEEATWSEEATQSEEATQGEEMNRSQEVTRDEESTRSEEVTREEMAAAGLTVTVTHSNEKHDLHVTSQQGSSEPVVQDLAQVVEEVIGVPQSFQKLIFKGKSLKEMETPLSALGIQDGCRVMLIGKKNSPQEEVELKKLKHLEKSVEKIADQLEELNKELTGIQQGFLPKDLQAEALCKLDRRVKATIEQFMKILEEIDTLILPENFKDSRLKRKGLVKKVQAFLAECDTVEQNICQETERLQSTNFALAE
Experimental: To assess what effect the secondary HSP72/BAG1 complex had on the apparent affinity of the non-nucleotide bisaryl-ATTO-488 FP-probe 11, we carried out a similar BAG1 study. […] To confirm that the binding of BAG1 to HSP72 was not mutually exclusive, we screened the nucleotides ADP and ATP in a competition assay with bisaryl-ATTO-488 11 and HSP72 at a 50% bound fraction, with and without a saturating concentration of BAG1 (700 nM) (Fig. S7, ESI ^†). […]
mM TRIS base pH 7.4, 100 mM NaCl, 1 mM DTT, 1% (v/v) glycerol) or BAG1 replacement buffer (5 μL, 20 mM TRIS base pH 7.4, 100 mM NaCl, 1 mM DTT, 1% (v/v) glycerol) was added to the corresponding wells of the assay plate. Fluorescence polarisation values for probe and HSP72 ± BAG1 were plotted using GraphPad prism 6.
KD determination with BAG1: To each well, 5 μL containing probe molecule (20 nM in assay buffer) and BAG1 protein (1.4 μM in assay buffer) and increasing concentrations of HSP70 protein (5 μL, two-fold dilution series) were added. Fluorescence polarisation values for tracer control wells (10 nM probe in assay buffer only) were subtracted from each data point prior to data analysis. KD determination was performed using non-linear regression analysis (GraphPad Prism 6, one site–specific binding […]

T1 sequence (P0DMV8 whole entry): as the sequence (P0DMV8 whole entry) above

CN(CCCC(=O)NCCCCCCNc1ncnc2c1nc(NCc1ccc3ncccc3c1)n2[C@@H]1O[C@H](COCc2ccc(C(F)(F)F)cc2)[C@@H](O)[C@H]1O)C(=O)c1ccccc1-c1c2ccc(=N)c(S(=O)(=O)O)c-2oc2c(S(=O)(=O)O)c(N)ccc12 [compound 11]
Z' ([1]; FP assay with HSP72): 0.63 | assay (binding) window ([1]; presence vs absence of 5 μM HSP72): greater than 150 mP | pKd ([2]; 700 nM BAG1): 6.85 | effect of BAG1 on affinity of the probe for HSP72 ([2]; saturating BAG1 (700 nM)): maintained; also recorded: no significant change

— publication PMC5708526, “Targeting secondary protein complexes in drug discovery: studying the druggability and chemical biology of the HSP70/BAG1 complex” (Chemical Communications (Cambridge, England), 2017)
